The values below come from paper PMC8012336, “An automated and high-throughput-screening compatible pluripotent stem cell-based test platform for developmental and reproductive toxicity assessment of small molecule compounds” (Cell Biology and Toxicology, 2020).

≈ marks a conversion by molar mass, not a printed value. Where two headings read alike, the source gives them in different places.

The test system of data set [1] is mESC-D3. The data set can be described thus: Automated mESC-D3 differentiation assay in 96-well round-bottom ultra-low attachment plates (cardiomyocyte contraction, day 10). The data set is classed as cell-based, mouse. The settings on record: beating cardiomyocytes at day 10, in brackets the two independent runs. The procedure:
The mESC-D3 differentiation assay was automated in 96-well round-bottom ultra-low attachment plates (Costar, Cat. No. 7007) on the lab automation platform Fluent (Tecan). The method was set up for testing up to three different compounds in an automated procedure, resulting in maximal 9 plates that were being processed. A 7-point dilution series of test compounds and control solutions were prepared in PBS or DMSO under the laminar flow, transferred to a 96-well 0.5 ml Masterblock plate, and placed on the Fluent worktable. There the compounds were further diluted in growth media in a 96-well 2 ml Masterblock plate using the FCA. Of the compound solution, 10 μl/well were dispensed into a 96-well round well ultra-low attachment plate. In the meantime, a suspension of mESC-D3 (3.75 × 10^4 cells/ ml) was prepared in growth media and was placed in a trough on the worktable. The cell suspension was transferred into the 96-well round-bottom ultra-low attachment plate (40 μl/well) using the FCA. After 2 days of incubation at 37 °C, 5% CO2, and 95% humidity fresh compound and control solutions were prepared and added to the 96-well U-bottom plate (200 μl/well). On day five of the assay freshly prepared compound and control solutions were dispensed into a 96-well imaging plate (200 μl/well, Greiner bio-one, Cat. No. 655866). Using the MCA, the supernatant was aspirated from the 96-well round-bottom ultra-low attachment plate, the EB at the bottom of the well was aspirated and transferred into the prefilled imaging plate. On day 7, the cell supernatant was partially replaced with a fresh compound solution. Therefore, the media was aspirated using the MCA and the fresh compound solution was dispensed with the FCA. After further 3 days of incubation (= day 10 of the assay) cardiomyocyte contraction was determined in each well under the light microscope. Afterward, cells were stained and analyzed using the Opera High Content Screening System (PerkinElmer).
Toxicity data from the MTT and CellTiter-Glo Assay was normalized against the vehicle control (100% viability) and plotted against the logarithmic compound concentration.

For data set [2], the system named is mESC-D3. The data set can be described thus: Conventional mouse ES-D3 differentiation assay in hanging drop format (petri dish; cardiomyocyte contraction, day 10). It is filed as cell-based. Particulars: manual; beating cardiomyocytes at day 10; in brackets the two individual experiments. The protocol:
Separate Petri dishes were used for each concentration of test compound, untreated control, and solvent control. […] The EB suspension was incubated for 2 days. On day five of the assay, a fresh compound dilution series was prepared in media and transferred into 24-well cell culture plates (1 ml/well, Greiner bio-one, Cat. No. 662641). A separate 24-well plate was used for each compound concentration, untreated control, and solvent control (24 wells per condition). One EB was transferred from the Petri dish into each well of the 24-well plate. After further 5 days of incubation (= day 10 of the assay), cardiomyocyte contraction was determined in each well under the light microscope.

For data set [3], the system named is mESC-D3. It is filed as cell-based, mouse. The settings on record: for ID50 FACS (MHC-positive cells): flow cytometry, day 7. The protocol: As an alternative to the morphological analysis at day 10, differentiation can be analyzed at day 7 of the assay by flow cytometry using the molecular flow EST (Buesen et al. [2009]). Previously, staining of cardiomyocytes was performed using an unconjugated primary monoclonal antibody directed against the sarcomeric MHC (clone MF20), followed by binding of a secondary biotin-conjugated goat anti-mouse IgG antibody which is then detected with the fluorochrome PE-SA (phycoerythrin-conjugated streptavidin) (Seiler and Spielmann [2011]). […] Of note, these experiments were performed in parallel with the same batch of spontaneously differentiated mESCs.
Embryoid bodies were formed in hanging drops (Petri dish) as already described. On day 5 of the assay, the EBs were transferred into a larger Petri dish and incubated for two more days at 37 °C, 5% CO2, and 95% humidity. Afterward, the EBs were dissociated using the Embryoid Body Dissociation Kit (Miltenyi Biotec, Cat. No. 130-096-348). EBs from two Petri dishes were harvested in one 15 ml tube and washed once with 10 ml PBS. The supernatant was discarded after centrifugation and a pre-warmed enzyme mix was added. The EB/enzyme mix was incubated for 10 min at 37 °C, dissociated for 1 min with a 1000 μl pipette, incubated for 5 min and mechanically dissociated again for 1 min. After the addition of 3 ml PBS, the cell suspension was passed through a 70-μm filter into a new 15-ml tube. The filter was then washed with 3 ml PBS and discarded afterward. The cell suspension was centrifuged for 5 min at 300 rpm. The supernatant was discarded afterward, cells were suspended in PBS and counted. For viability staining, 10^6 cells were suspended in 100 μl staining reagent (LIVE/DEAD™ Fixable Green Dead Stain Kit, Life Technologies, Cat. No. L34969), incubated for 30 min at 4 °C and washed with 1 ml PBS. For fixation, cells were suspended in 100 μl fixation buffer (BioLegend, Cat. No. 420801) and incubated 20 min at room temperature. For the intracellular staining, cells were washed twice with 1 ml permeabilization buffer (BioLegend, Cat. No. 421002) and suspended in 50 μl permeabilization buffer supplemented with 50 μl of pre-diluted (1:5) antibody (mouse IgG2B anti-human Myosin Heavy Chain APC-conjugated, mouse IgG2B APC-conjugated isotype control, R&D Systems, Cat. No. IC4470A). After 1 h incubation at room temperature cells were washed twice with 1 ml permeabilization buffer and suspended in FACS buffer. Within 2–3 h samples were measured on an LSR II flow cytometer (Beckton Dickinson). Data analysis was done using FlowJo software (Version 10.0.8; Tree Star).
In general terms: In flow cytometry, cells or beads pass a laser one at a time.

The subject of data set [4] is mESC-D3 and NIH/3T3 cells. The settings on record: for Compound classification (Seiler and Spielmann [2011]): automated mouse EST assay; for Compound classification: manual murine EST assay, prediction model of Seiler and Spielmann 2011.
The test system of data set [5] is mESC-D3. Further details: method as in Scholz et al. [1999]. Particulars: ZEBET value, 7 d result; ref Scholz et al. [1999]; cited from earlier work.
Another data set concerns NIH/3T3. Further details: method as in Scholz et al. [1999]. The settings on record: ZEBET value, 7 d result; ref Scholz et al. [1999]; cited from earlier work.
Data set [6] has as its system mESC-D3. Further details: method as in Scholz et al. [1999]. Particulars: ZEBET value printed beside hanging drop differentiation result; ref Scholz et al. [1999]; cited from earlier work.

With `O=C1NS(=O)(=O)c2ccccc21` [Saccharin, saccharin], in the data set on mESC-D3 [1], the “Differentiation assay in round bottom ULA microplate ID50 mESC-D3” value is recorded as > 1000 (> 1000; > 1000) μg/ml. In the data set on mESC-D3 [1] (listed as saccharin), the “Differentiation assay in round bottom ULA microplate ID50 mESC-D3” value is greater than 1000 µg/mL. Also, the “Differentiation assay in hanging drop (petri dish) ID50 mESC-D3” value with mESC-D3 [2] is reported as 1000 (> 1000; > 1000) µg/ml. For the same compound, the “ID50 FACS (MHC-positive cells)” value with mESC-D3 [3] was greater than 1000 µg/mL. This compound gave an MHC-positive cells in the data set on mESC-D3 [3] (treated with 1000 μg/ml, untreated 25%) of 19%. Further, in data set [4], the “Compound classification (Seiler and Spielmann [2011])” value is “No embryotoxicity”; the Compound classification entry was “no embryotoxicity”. Also, the “IC50 mESC-D3 (ZEBET)” value in the data set with mESC-D3 [5] is 3498 µg/mL (≈ 19100 µM). In the data set with NIH/3T3, the “IC50 NIH/3T3 (ZEBET)” value was 3000 µg/mL (≈ 16400 µM). Further, the “ID50 mESC-D3 (ZEBET)” value in the data set with mESC-D3 [6] was 2000 µg/mL (≈ 10900 µM).
As for `NC(=O)NO` [Hydroxyurea, hydroxyurea], in the data set with mESC-D3 [1], the “Differentiation assay in round bottom ULA microplate ID50 mESC-D3” value is recorded as 2.69 (2.86; 2.52) μg/ml. In addition, the “Differentiation assay in round bottom ULA microplate ID50 mESC-D3” value in the data set with mESC-D3 [1] (listed as hydroxyurea) is 2.69 µg/mL. For the same compound, in the data set with mESC-D3 [2], the “Differentiation assay in hanging drop (petri dish) ID50 mESC-D3” value is listed as 2.55 (2.56; 2.54) µg/ml. For the same compound, in the data set with mESC-D3 [3], the “ID50 FACS (MHC-positive cells)” value is 5.65 µg/mL (≈ 74.3 µM). In the data set on mESC-D3 [3] (treated with 10 μg/ml, untreated 31% (hydroxyurea), 26% (fumonisine B1)), the MHC-positive cells is 4%. For the same compound, in data set [4], the “Compound classification (Seiler and Spielmann [2011])” value is “Strong embryotoxicity”; the Compound classification entry is reported as “strong embryotoxicity”. Moreover, the “IC50 mESC-D3 (ZEBET)” value in the data set with mESC-D3 [5] was 2.0 µg/mL (≈ 26.3 µM). Moreover, the “IC50 NIH/3T3 (ZEBET)” value in the data set on NIH/3T3 is 7.2 µg/mL (≈ 94.7 µM). Also, in the data set on mESC-D3 [6], the “ID50 mESC-D3 (ZEBET)” value was 1.7 µg/mL (≈ 22.4 µM).
